# Where a name gives a salt, the structure may show the parent alone.
# Molecular target: T1, H^+/K^+-ATPase (Sus scrofa, UniProt P19156)
# T1 construct: used as an enzyme source of the in vitro enzyme reaction assay of proton pump; from tissue; host or cells: hog gastric fundic mucosa (membrane vesicles, lyophilized)
# Test: Inhibitory effects on proton pump (H^+/K^+-ATPase) activity, hog gastric vesicles
# Format: biochemical
# Conditions: K^+ stimulated H^+/K^+-ATPase activity, hog gastric vesicle, Pi measured at 620 nm
# Procedure: Preparation of Gastric Proton Pump Vesicles
# The hog fundic regions containing parietal and peptic cells were scraped with slide-glass. The collected cells were suspended in 10 ml of 0.25M sucrose buffer and homogenized using a tight-fitting Teflon-glass homogenizer. The homogenate was centrifuged for 35 min at 8,000 rpm and the pellet was discarded. The supernatant was further centrifuged for 75 min at 25,000 rpm. The resulting pellets were re-suspended in the sucrose buffer (10 ml), and then the suspension was laid onto discontinuous density gradients consisting of 0.25M sucrose buffer and isolation medium containing 9% Ficoll (w/w). After being centrifuged for 3 hours and 15 minutes at 100,000×g, the material at the interface of sucrose buffer and Ficoll solution was collected and then centrifuged for 40 minutes at 100,000×g. The resulting pellets were re-suspended in 1 ml of 5 mM Hepes/Tris buffer (pH 6.1). This material was lyophilized and stored at −70° C. and used as an enzyme source of the in vitro enzyme reaction assay of proton pump.
# 1-2. Measurement of Inhibitory Effects on Proton Pump (H+/K+-ATPase) activity
# The inhibitory effects of the compounds of the present invention against proton pump activity were evaluated in 96-well plate. In this assay, the K^+ specific H^+/K^+-ATPase activity was calculated based on the difference between the activity of H^+/K^+-ATPase activity with K^+ and without K^+ ion. In 96-well plate, 1% dimethylsulfoxide (DMSO) in buffer was added to negative and positive control groups and the diluted compounds of the present invention in buffer were added to test group. All assays were performed in 100 μl reaction volume at room temperature, and the hog gastric vesicle was kept in ice before use. At the beginning of the reaction, 10 μl of reaction buffer containing 1% DMSO was added to the negative and positive control groups and to each concentration of compounds in the test group. Then lyophilized vesicle in 5 mM Pipes/Tris buffer (pH 6.1) was pre-incubated in the presence of various concentrations of test compounds. After a 5 minute incubation, negative and positive buffers were respectively added to the previous reaction mixture. As the substrate, ATP was added to the reaction buffer, and incubated for 30 minutes at 37° C. Enzymatic activity was stopped by the addition of colorimetric reagent (2× malachite green, 1× ammonium molybdate, 1× polyvinyl alcohol, 2× H2O) and the amount of mono phosphate (Pi) in the reaction was measured at 620 nm using the micro plate reader (Genios Pro, TECAN). The difference between the Pi production with K^+ and without K^+ is taken as K^+ stimulated H^+/K^+-ATPase activity.
# T1 sequence (P19156 2-1034 limits assumed): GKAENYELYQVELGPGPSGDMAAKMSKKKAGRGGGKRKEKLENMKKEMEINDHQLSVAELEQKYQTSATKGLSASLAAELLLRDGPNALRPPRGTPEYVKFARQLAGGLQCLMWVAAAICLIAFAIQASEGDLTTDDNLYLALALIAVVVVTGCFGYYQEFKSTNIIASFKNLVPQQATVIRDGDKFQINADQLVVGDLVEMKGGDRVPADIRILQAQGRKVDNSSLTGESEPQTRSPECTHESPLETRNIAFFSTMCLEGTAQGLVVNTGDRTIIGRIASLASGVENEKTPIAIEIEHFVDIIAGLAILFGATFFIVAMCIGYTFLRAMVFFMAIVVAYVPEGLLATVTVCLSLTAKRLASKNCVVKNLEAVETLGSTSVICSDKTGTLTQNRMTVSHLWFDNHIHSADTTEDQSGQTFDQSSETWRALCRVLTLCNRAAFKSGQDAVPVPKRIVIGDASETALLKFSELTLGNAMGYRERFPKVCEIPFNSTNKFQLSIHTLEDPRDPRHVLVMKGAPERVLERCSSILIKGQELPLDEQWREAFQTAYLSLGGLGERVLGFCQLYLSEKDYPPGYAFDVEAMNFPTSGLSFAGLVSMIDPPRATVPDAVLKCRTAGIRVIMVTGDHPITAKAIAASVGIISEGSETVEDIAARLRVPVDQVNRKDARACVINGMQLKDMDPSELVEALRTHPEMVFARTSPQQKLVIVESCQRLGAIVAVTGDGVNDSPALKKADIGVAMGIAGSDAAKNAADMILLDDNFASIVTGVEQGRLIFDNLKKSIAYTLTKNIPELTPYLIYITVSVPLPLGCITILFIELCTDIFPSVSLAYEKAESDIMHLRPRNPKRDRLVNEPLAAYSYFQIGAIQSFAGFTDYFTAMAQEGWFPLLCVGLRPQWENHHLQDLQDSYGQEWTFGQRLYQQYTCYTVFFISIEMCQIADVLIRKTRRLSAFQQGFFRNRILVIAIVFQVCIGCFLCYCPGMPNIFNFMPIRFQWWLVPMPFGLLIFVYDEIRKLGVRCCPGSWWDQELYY
# T1 sequence (P18434 whole entry partner): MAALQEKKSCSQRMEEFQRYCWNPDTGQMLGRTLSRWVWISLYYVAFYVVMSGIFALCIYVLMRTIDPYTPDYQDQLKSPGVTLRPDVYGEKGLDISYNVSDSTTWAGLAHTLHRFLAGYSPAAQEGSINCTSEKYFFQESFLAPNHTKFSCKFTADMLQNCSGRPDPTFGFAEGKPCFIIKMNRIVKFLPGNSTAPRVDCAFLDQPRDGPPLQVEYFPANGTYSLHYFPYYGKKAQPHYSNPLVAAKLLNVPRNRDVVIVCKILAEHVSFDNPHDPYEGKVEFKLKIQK
row,IC50 [nM],Structure (SMILES)
1,840,"CCOc1ccccc1COc1ccnc2c(C)c(C)n(Cc3cccc(F)c3)c12 [Example 178, 1-(3-fluorobenzyl)-7-(2-ethoxybenzyloxy)-2,3-dimethyl-1H-pyrrolo[3,2-b]pyridine hydrochloride]"
2,880,"COc1cccc(Cn2c(C)c(C)c3nccc(OCc4cccc(C)c4)c32)c1 [Example 159, 1-(3-methoxybenzyl)-2,3-dimethyl-7-(3-methylbenzyloxy)-1H-pyrrolo[3,2-b]pyridine hydrochloride]"
3,3820,"COC(=O)Cn1c(C)c(C)c2nccc(OCc3ccc(Cl)cc3)c21 [Example 83, [7-(4-chlorobenzyloxy)-2,3-dimethyl-pyrrolo[3,2-b]pyridin-1-yl]acetic acid methyl ester hydrochloride]"
4,60,"Cc1c(C)n(Cc2ccccc2)c2c(OCc3ccc(Br)cc3)ccnc12 [Example 219, 1-benzyl-7-(4-bromobenzyloxy)-2,3-dimethyl-1H-pyrrolo[3,2-b]pyridine hydrochloride]"
5,1010,"Cc1c(C)n(Cc2ccccc2F)c2c(OCc3ccc4c(c3)OCO4)ccnc12 [Example 101, 7-(benzo[1,3]dioxol-5-ylmethoxy)-1-(2-fluorobenzyl)-2,3-dimethyl-1H-pyrrolo[3,2-b]pyridine hydrochloride]"
6,570,"CC(C)=CCn1c(C)c(C)c2nccc(OCc3ccc(F)cc3)c21 [Example 56, hydrochloride]"
7,320,"Cc1cccc(COc2ccnc3c(C)c(C)n(Cc4ccc(F)cc4)c23)c1 [Example 158, 1-(4-fluorobenzyl)-2,3-dimethyl-7-(3-methylbenzyloxy)-1H-pyrrolo[3,2-b]pyridine hydrochloride]"
8,340,"Cc1c(C)n(Cc2ccccc2F)c2c(OCc3ccc(Cl)cc3)ccnc12 [Example 89, 7-(4-chlorobenzyloxy)-1-(2-fluorobenzyl)-2,3-dimethyl-1H-pyrrolo[3,2-b]pyridine hydrochloride]"
9,50,"COCCn1c(C)c(C)c2nccc(OCc3ccc(F)cc3)c21 [Example 128, 7-(4-fluorobenzyloxy)-1-(2-methoxyethyl)-2,3-dimethyl-1H-pyrrolo[3,2-b]pyridine maleate]"
10,60,"CCn1c(C)c(C)c2nccc(OCc3ccc(Cl)cc3Cl)c21 [Example 137, 7-(2,4-dichlorobenzyloxy)-1-ethyl-2,3-dimethyl-1H-pyrrolo[3,2-b]pyridine hydrochloride]"
11,50,"C=CCn1c(C)c(C)c2nccc(OCc3ccc(Br)cc3)c21 [Example 220, 1-allyl-7-(4-bromobenzyloxy)-2,3-dimethyl-1H-pyrrolo[3,2-b]pyridine hydrochloride]"
12,3450,"Cc1cccc(COc2ccnc3c(C)c(C)n(Cc4ccc(Cl)cc4)c23)c1 [Example 147, 1-(4-chlorobenzyl)-2,3-dimethyl-7-(3-methylbenzyloxy)-1H-pyrrolo[3,2-b]pyridine hydrochloride]"
13,20,"COCCn1c(C)c(C)c2nccc(OCc3ccc(F)cc3)c21 [Example 122, 7-(4-fluorobenzyloxy)-1-(2-methoxyethyl)-2,3-dimethyl-1H-pyrrolo[3,2-b]pyridine]"
14,90,"COc1cccc(Cn2c(C)c(C)c3nccc(OCc4ccc(Cl)cc4Cl)c32)c1 [Example 141, 7-(2,4-dichlorobenzyloxy)-1-(3-methoxybenzyl)-2,3-dimethyl-1H-pyrrolo[3,2-b]pyridine hydrochloride]"
15,80,"Cc1c(C)n(Cc2ccc(F)cc2)c2c(OCc3ccc(Cl)cc3Cl)ccnc12 [Example 140, 7-(2,4-dichlorobenzyloxy)-1-(4-fluorobenzyl)-2,3-dimethyl-1H-pyrrolo[3,2-b]pyridine hydrochloride]"
16,70,"CCCn1c(C)c(C)c2nccc(OCc3ccc(Br)cc3)c21 [Example 229, 7-(4-bromobenzyloxy)-2,3-dimethyl-1-propyl-1H-pyrrolo[3,2-b]pyridine hydrochloride]"
17,130,"Cc1ccc(Cn2c(C)c(C)c3nccc(OCc4ccc(Cl)cc4)c32)cc1 [Example 96, 7-(4-chlorobenzyloxy)-1-(4-methylbenzyl)-2,3-dimethyl-1H-pyrrolo[3,2-b]pyridine hydrochloride]"
18,70,"Cc1ccc(Cn2c(C)c(C)c3nccc(OCc4ccc5c(c4)OCO5)c32)cc1 [Example 114, 7-(benzo[1,3]dioxol-5-ylmethoxy)-1-(4-methylbenzyl)-2,3-dimethyl-1H-pyrrolo[3,2-b]pyridine hydrochloride]"
19,380,"Cc1ccc(Cn2c(C)c(C)c3nccc(OCc4cc(F)cc(F)c4)c32)cc1 [Example 196, 7-(3,5-difluorobenzyloxy)-1-(4-methylbenzyl)-2,3-dimethyl-1H-pyrrolo[3,2-b]pyridine hydrochloride]"

# The remaining lines, values behind:
row,Structure (SMILES),IC50 [nM]
1,"Cc1c(C)n(CC2CC2)c2c(NCc3ccc(F)cc3)ccnc12 [Example 255, N-(1-cyclopropylmethyl-2,3-dimethyl-1H-pyrrolo[3,2-b]pyridin-7-yl)-4-fluorobenzylamine hydrochloride]",550
2,"Cc1c(C)n(CC2OCCO2)c2c(N3CCc4ccccc4C3)ccnc12 [Example 3, 1-(1,3-dioxolan-2-ylmethyl)-7-(1,2,3,4-tetrahydroisoquinolin-2-yl)-2,3-dimethyl-1H-pyrrolo[3,2-b]pyridine hydrochloride]",640
3,"Cc1c(C)n(Cc2ccccc2)c2c(NCc3ccc(F)cc3)ccnc12 [Example 261, N-(1-benzyl-2,3-dimethyl-1H-pyrrolo[3,2-b]pyridin-7-yl)-4-fluorobenzylamine hydrochloride]",2060
4,"Cc1c(C)n(Cc2ccccc2F)c2c(N3CCc4ccccc4C3)ccnc12 [Example 9, 1-(2-fluorobenzyl)-7-(1,2,3,4-tetrahydroisoquinolin-2-yl)-2,3-dimethyl-1H-pyrrolo[3,2-b]pyridine hydrochloride]",330
5,"C=CCn1c(C)c(C)c2nccc(NCc3ccc(F)cc3)c21 [Example 254, N-(1-allyl-2,3-dimethyl-1H-pyrrolo[3,2-b]pyridin-7-yl)-4-fluorobenzylamine hydrochloride]",210
6,"COCCn1c(C)c(C)c2nccc(N3CCc4ccccc4C3)c21 [Example 5, 1-(2-methoxyethyl)-7-(1,2,3,4-tetrahydroisoquinolin-2-yl)-2,3-dimethyl-1H-pyrrolo[3,2-b]pyridine hydrochloride]",320
7,"COCCn1c(C)c(C)c2nccc(OCc3cc(F)cc(F)c3)c21 [Example 181, 7-(3,5-difluorobenzyloxy)-1-(2-methoxyethyl)-2,3-dimethyl-1H-pyrrolo[3,2-b]pyridine hydrochloride]",4710
8,"C=CCn1c(C)c(C)c2nccc(OCc3ccc4c(c3)OCO4)c21 [Example 98, 1-allyl-7-(benzo[1,3]dioxol-5-ylmethoxy)-2,3-dimethyl-1H-pyrrolo[3,2-b]pyridine hydrochloride]",620
9,"Cc1c(C)n(Cc2ccc3ccccc3c2)c2c(N3CCc4ccccc4C3)ccnc12 [Example 2, 1-(2-naphthylmethyl)-7-(1,2,3,4-tetrahydroisoquinolin-2-yl)-2,3-dimethyl-1H-pyrrolo[3,2-b]pyridine hydrochloride]",1060
10,"CCOc1ccccc1COc1ccnc2c(C)c(C)n(Cc3cccc(OC)c3)c12 [Example 177, 7-(2-ethoxybenzyloxy)-1-(3-methoxybenzyl)-2,3-dimethyl-1H-pyrrolo[3,2-b]pyridine hydrochloride]",290
11,"CC(=O)OCCn1c(C)c(C)c2nccc(OCc3ccc(Cl)cc3)c21 [Example 85, 1-(2-acetoxyethyl)-7-(4-chlorobenzyloxy)-2,3-dimethyl-1H-pyrrolo[3,2-b]pyridine hydrochloride]",170
12,"Cc1c(C)n(CC2OCCO2)c2c(OCc3ccc(F)cc3)ccnc12 [Example 39, 1-(1,3-dioxolan-2-ylmethyl)-7-(4-fluorobenzyloxy)-2,3-dimethyl-1H-pyrrolo[3,2-b]pyridine hydrochloride]",220
13,"COc1ccc(Cn2c(C)c(C)c3nccc(N4CCc5ccccc5C4)c32)cc1 [Example 10, 1-(4-methoxybenzyl)-7-(1,2,3,4-tetrahydroisoquinolin-2-yl)-2,3-dimethyl-1H-pyrrolo[3,2-b]pyridine hydrochloride]",690
14,"CCCn1c(C)c(C)c2nccc(NCc3ccc(F)cc3)c21 [Example 260, N-(2,3-dimethyl-1-propyl-1H-pyrrolo[3,2-b]pyridin-7-yl)-4-fluorobenzylamine hydrochloride]",1210

# Source: patent US7642269B2, “Pyrrolo[3,2-B]pyridine derivatives and processes for the preparation thereof” (Yuhan Corporation, priority 2005, dated 2010)
